Earlier results on four molecules are cited in article PMC7463651, “Phase I/Ib Study of Tenalisib (RP6530), a Dual PI3K δ/γ Inhibitor in Patients with Relapsed/Refractory T-Cell Lymphoma” (Cancers, 2020).

Where two headings read alike, the source gives them in different places.

For the data set, the system named is PTCL/CTCL. More on the design: method as in PMID 21245435, PMID 28641053, PMID 26101246. The conditions noted are these: cited from earlier work.

In the case of `O=C(/C=C/c1cccc(S(=O)(=O)Nc2ccccc2)c1)NO` [belinostat], the “Overall response rate (ORR)” value (FDA approved single agent) was 26%.

Turning to `C#CCC(Cc1cnc2nc(N)nc(N)c2n1)c1ccc(C(=O)N[C@@H](CCC(=O)O)C(=O)O)cc1` (stereo partly shown) [pralatrexate], the “Overall response rate (ORR)” value (FDA approved single agent) was 29%.

In the case of `C/C=C1\NC(=O)[C@H]2CSSCC/C=C/[C@H](CC(=O)N[C@H](C(C)C)C(=O)N2)OC(=O)[C@H](C(C)C)NC1=O` [romidepsin], for the setting “FDA approved single agent”, the “Overall response rate (ORR)” value was 25%.

For brentuximab vedotin, the “Overall response rate (ORR)” value (in CD30+ T-cells) is 68%.
